Reference: patent publication US20250320213A1, “Nitrogen-Containing Heterocyclic Compounds” (Pfizer Inc., priority 2024, published 2025)

Columns and labels:
STAT6 = target: T1, STAT6 (Homo sapiens, UniProt P42226); assay: STAT6 Reporter Luciferase Assay (IL-13 stimulated HaCaT keratinocyte NanoLuc reporter cells); type: cell-based; details: IL-13 stimulated HaCaT STAT6 NanoLuc reporter cells; read-out: Reporter EC50
T1 construct: stably transfected HaCaT keratinocyte cell line, which expresses NanoLuc luciferase reporter gene under the transcriptional control of the STAT6 responsive promoter; endogenous in cells; host or cells: HaCaT keratinocyte reporter cell line (stably transfected with a NanoLuc reporter)
T1 sequence (P42226 1-847): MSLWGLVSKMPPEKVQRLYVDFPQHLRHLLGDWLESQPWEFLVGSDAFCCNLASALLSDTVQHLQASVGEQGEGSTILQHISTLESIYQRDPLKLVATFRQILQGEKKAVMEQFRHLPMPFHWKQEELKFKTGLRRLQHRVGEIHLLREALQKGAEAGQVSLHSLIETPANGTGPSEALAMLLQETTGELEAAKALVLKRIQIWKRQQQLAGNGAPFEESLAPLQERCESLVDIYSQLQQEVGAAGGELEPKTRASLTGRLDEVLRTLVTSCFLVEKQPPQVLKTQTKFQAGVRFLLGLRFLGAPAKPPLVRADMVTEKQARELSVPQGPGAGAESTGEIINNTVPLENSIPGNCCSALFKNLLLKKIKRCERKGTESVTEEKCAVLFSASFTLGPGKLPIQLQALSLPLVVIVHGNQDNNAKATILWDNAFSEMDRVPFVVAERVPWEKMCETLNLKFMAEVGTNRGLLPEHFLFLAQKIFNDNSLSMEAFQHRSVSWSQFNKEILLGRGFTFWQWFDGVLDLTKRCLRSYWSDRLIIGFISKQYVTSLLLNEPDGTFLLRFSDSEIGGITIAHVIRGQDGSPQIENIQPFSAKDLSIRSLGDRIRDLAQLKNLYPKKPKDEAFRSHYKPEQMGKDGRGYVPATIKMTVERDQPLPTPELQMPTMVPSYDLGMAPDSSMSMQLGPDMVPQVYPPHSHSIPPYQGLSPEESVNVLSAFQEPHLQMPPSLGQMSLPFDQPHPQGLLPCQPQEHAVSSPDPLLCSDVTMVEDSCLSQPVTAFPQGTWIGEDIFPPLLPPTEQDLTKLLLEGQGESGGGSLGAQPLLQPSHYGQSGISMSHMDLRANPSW
In short: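 Cells were plated overnight, washed, exposed to compound for two hours, stimulated with IL-13 (0.12 nM final) for four hours at 37 °C, and then lysed with Nano-Glo substrate for 15 min before luminescence reading.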

[1] = tested on: CCL17 secretion in peripheral human whole blood; assay: Human Whole Blood (HWB) CCL17 TR-FRET Assay (IL-13 stimulated CCL17 secretion); type: cell-based; details: Homo sapiens, 48 h, human whole blood, IL-13 stimulated
In short: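 IC50 values reflect inhibition of IL-13-driven CCL17 release in human whole blood. Blood was preincubated with compound 2 h, stimulated 48 h at 37 °C with IL-13 (10 ng/mL final), and serum CCL17 was measured by TR-FRET.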

SMILES: CC(n1nc(C(=O)NCc2ccc(NC(=O)N(C)C)cc2)c2c1CCN(c1ccc(C(=O)N(C)C)cn1)C2)C(C)(C)C (centres unmarked) [Example 278, 1-(3,3-dimethylbutan-2-yl)-5-(5-(dimethylcarbamoyl)pyridin-2-yl)-N-(4-(3,3-dimethylureido)benzyl)-4,5,6,7-tetrahydro-1H-pyrazolo[4,3-c]pyridine-3-carboxamide]
- EC50 (STAT6): 0.005 µM
- IC50 [1]: 0.253 µM

SMILES: CC(C)Cn1nc(C(=O)NCc2ccc(NC(=O)N(C)C)cc2)c2c1CCN(c1ccc(C(=O)N(C)C)cn1)C2 [Example 279, 5-(5-(dimethylcarbamoyl)pyridin-2-yl)-N-(4-(3,3-dimethylureido)benzyl)-1-isobutyl-4,5,6,7-tetrahydro-1H-pyrazolo[4,3-c]pyridine-3-carboxamide]
- EC50 (STAT6): 0.009 µM
- IC50 [1]: 0.094 µM

SMILES: CCn1nc(C(=O)NCc2ccc(-c3ncc[nH]3)cc2)c2c1[C@@H](C)CN(c1ccc(C(=O)N(C)C)cn1)C2 [Example 283, (S)-N-(4-(1H-imidazol-2-yl)benzyl)-5-(5-(dimethylcarbamoyl)pyridin-2-yl)-1-ethyl-7-methyl-4,5,6,7-tetrahydro-1H-pyrazolo[4,3-c]pyridine-3-carboxamide]
- EC50 (STAT6): 0.002 µM
- IC50 [1]: 0.011 µM

SMILES: CCn1nc(C(=O)NCc2ccc(C(=O)NC)cc2)c2c1[C@@H](C)CN(c1ccc(C(=O)N(C)C)cn1)C2 [Example 284, (S)-5-(5-(dimethylcarbamoyl)pyridin-2-yl)-1-ethyl-7-methyl-N-(4-(methylcarbamoyl)benzyl)-4,5,6,7-tetrahydro-1H-pyrazolo[4,3-c]pyridine-3-carboxamide]
- EC50 (STAT6): 0.008 µM
- IC50 [1]: 0.04 µM

SMILES: CC(C)n1nc(C(=O)NCc2ccc(NC(=O)N(C)C)cc2)c2c1CCN(c1ccc(CC(=O)N(C)C)cn1)C2 [Example 286, 5-(5-(2-(Dimethylamino)-2-oxoethyl)pyridin-2-yl)-N-(4-(3,3-dimethylureido)benzyl)-1-isopropyl-4,5,6,7-tetrahydro-1H-pyrazolo[4,3-c]pyridine-3-carboxamide]
- EC50 (STAT6): 0.663 µM
- IC50 [1]: > 3.06 µM

SMILES: CCn1nc(C(=O)NCc2ccc(-c3ncc[nH]3)cc2)c2c1[C@@H](C)CN(c1ncc(C(=O)N(C)C)cn1)C2 [Example 301, (S)-N-(4-(1H-imidazol-2-yl)benzyl)-5-(5-(dimethylcarbamoyl)pyrimidin-2-yl)-1-ethyl-7-methyl-4,5,6,7-tetrahydro-1H-pyrazolo[4,3-c]pyridine-3-carboxamide]
- EC50 (STAT6): 0.001 µM
- IC50 [1]: 0.008 µM

SMILES: CCn1nc(C(=O)NCc2ccc(NC(=O)N(C)C)cn2)c2c1[C@@H](C)CN(c1ccc(C(=O)N(C)C)cn1)C2 [Example 302, (S)-5-(5-(dimethylcarbamoyl)pyridin-2-yl)-N-((5-(3,3-dimethylureido)pyridin-2-yl)methyl)-1-ethyl-7-methyl-4,5,6,7-tetrahydro-1H-pyrazolo[4,3-c]pyridine-3-carboxamide]
- EC50 (STAT6): 0.006 µM
- IC50 [1]: 0.009 µM

SMILES: CCn1nc(C(=O)NCc2ccc(NC(=O)N(C)C)cn2)c2c1[C@@H](C)CN(c1ncc(C(=O)N(C)C)cn1)C2 [Example 305, (S)-5-(5-(dimethylcarbamoyl)pyrimidin-2-yl)-N-((5-(3,3-dimethylureido)pyridin-2-yl)methyl)-1-ethyl-7-methyl-4,5,6,7-tetrahydro-1H-pyrazolo[4,3-c]pyridine-3-carboxamide]
- EC50 (STAT6): 0.005 µM
- IC50 [1]: 0.007 µM

SMILES: CCn1nc(C(=O)NCc2ccc(C(=O)NC)cc2)c2c1[C@@H](C)CN(c1ncc(C(=O)N(C)C)cn1)C2 [Example 306, (S)-5-(5-(dimethylcarbamoyl)pyrimidin-2-yl)-1-ethyl-7-methyl-N-(4-(methylcarbamoyl)benzyl)-4,5,6,7-tetrahydro-1H-pyrazolo[4,3-c]pyridine-3-carboxamide]
- EC50 (STAT6): 0.007 µM
- IC50 [1]: 0.033 µM

SMILES: CN(C)C(=O)Nc1ccc(CNC(=O)c2nn(CCC#N)c3c2CN(c2ccc(C(=O)N(C)C)cn2)CC3)cc1 [Example 308, 1-(2-cyanoethyl)-5-(5-(dimethylcarbamoyl)pyridin-2-yl)-N-(4-(3,3-dimethylureido)benzyl)-4,5,6,7-tetrahydro-1H-pyrazolo[4,3-c]pyridine-3-carboxamide]
- EC50 (STAT6): 0.287 µM
- IC50 [1]: 0.718 µM

SMILES: CN(C)C(=O)Nc1ccc(CNC(=O)c2nn(CCC(N)=O)c3c2CN(c2ccc(C(=O)N(C)C)cn2)CC3)cc1 [Example 309, 1-(3-amino-3-oxopropyl)-5-(5-(dimethylcarbamoyl)pyridin-2-yl)-N-(4-(3,3-dimethylureido)benzyl)-4,5,6,7-tetrahydro-1H-pyrazolo[4,3-c]pyridine-3-carboxamide]
- EC50 (STAT6): 1.71 µM
- IC50 [1]: 4.1 µM

SMILES: CN(C)C(=O)Nc1ccc(CNC(=O)c2nn(C3(C(F)(F)F)CC3)c3c2CN(c2ccc(C(=O)N(C)C)cn2)CC3)cc1 [Example 320, 5-(5-(dimethylcarbamoyl)pyridin-2-yl)-N-(4-(3,3-dimethylureido)benzyl)-1-(1-(trifluoromethyl)cyclopropyl)-4,5,6,7-tetrahydro-1H-pyrazolo[4,3-c]pyridine-3-carboxamide]
- EC50 (STAT6): 0.005 µM
- IC50 [1]: 0.135 µM

SMILES: CCn1nc(C(=O)NCc2ccc(NC(=O)N(C)C)nc2)c2c1[C@@H](C)CN(c1ccc(C(=O)N(C)C)cn1)C2 [Example 323, (S)-5-(5-(dimethylcarbamoyl)pyridin-2-yl)-N-((6-(3,3-dimethylureido)pyridin-3-yl)methyl)-1-ethyl-7-methyl-4,5,6,7-tetrahydro-1H-pyrazolo[4,3-c]pyridine-3-carboxamide]
- EC50 (STAT6): 0.005 µM
- IC50 [1]: 0.026 µM

SMILES: CCn1nc(C(=O)NCc2ccc(NC(=O)N(C)C)nc2)c2c1[C@@H](C)CN(c1ncc(C(=O)N(C)C)cn1)C2 [Example 324, (S)-5-(5-(dimethylcarbamoyl)pyrimidin-2-yl)-N-((6-(3,3-dimethylureido)pyridin-3-yl)methyl)-1-ethyl-7-methyl-4,5,6,7-tetrahydro-1H-pyrazolo[4,3-c]pyridine-3-carboxamide]
- EC50 (STAT6): 0.005 µM
- IC50 [1]: 0.018 µM

SMILES: CNC(=O)Cc1ccc(N2CCc3c(c(C(=O)NCc4ccc(NC(=O)N(C)C)cc4)nn3C(C)C)C2)nc1 [Example 337, N-(4-(3,3-dimethylureido)benzyl)-1-isopropyl-5-(5-(2-(methylamino)-2-oxoethyl)pyridin-2-yl)-4,5,6,7-tetrahydro-1H-pyrazolo[4,3-c]pyridine-3-carboxamide]
- EC50 (STAT6): 5.37 µM
- IC50 [1]: > 20.5 µM

SMILES: CC(C)n1nc(C(=O)NCc2ccc(NC(=O)N(C)C)cc2)c2c1CCN(c1ccc(C3COC3)cn1)C2 [Example 338, N-(4-(3,3-Dimethylureido)benzyl)-1-isopropyl-5-(5-(oxetan-3-yl)pyridin-2-yl)-4,5,6,7-tetrahydro-1H-pyrazolo[4,3-c]pyridine-3-carboxamide]
- EC50 (STAT6): 3.11 µM
- IC50 [1]: > 30 µM

SMILES: CC(C)n1nc(C(=O)NCc2ccc(NC(=O)N(C)C)cc2)c2c1[C@@H](C)CN(c1ncc(-c3nccn3C)cn1)C2 [Example 340, (S)-N-(4-(3,3-dimethylureido)benzyl)-1-isopropyl-7-methyl-5-(5-(1-methyl-1H-imidazol-2-yl)pyrimidin-2-yl)-4,5,6,7-tetrahydro-1H-pyrazolo[4,3-c]pyridine-3-carboxamide]
- EC50 (STAT6): 0.276 µM
- IC50 [1]: 2.34 µM

SMILES: CNC(=O)c1ccc(CNC(=O)c2nn(C(C)C)c3c2CN(c2ccc(C(=O)N(C)C)cn2)C[C@@H]3C)cc1 [Example 341, (S)-5-(5-(dimethylcarbamoyl)pyridin-2-yl)-1-isopropyl-7-methyl-N-(4-(methylcarbamoyl)benzyl)-4,5,6,7-tetrahydro-1H-pyrazolo[4,3-c]pyridine-3-carboxamide]
- EC50 (STAT6): 0.004 µM
- IC50 [1]: 0.028 µM

SMILES: CC(C)n1nc(C(=O)NCc2ccc(C(N)=O)cc2)c2c1[C@@H](C)CN(c1ccc(C(=O)N(C)C)cn1)C2 [Example 342, (S)-N-(4-carbamoylbenzyl)-5-(5-(dimethylcarbamoyl)pyridin-2-yl)-1-isopropyl-7-methyl-4,5,6,7-tetrahydro-1H-pyrazolo[4,3-c]pyridine-3-carboxamide]
- EC50 (STAT6): 0.003 µM
- IC50 [1]: 0.015 µM
